Experimental data published in patent US8367840B2, “Composition for treating infectious diseases caused by Helicobacter” (Universidad de Zaragoza, priority 2007, dated 2013).

Tests used:
H. pylori flavodoxin = target: T1, H. pylori flavodoxin (Helicobacter pylori, UniProt O25776); experiment: Inhibition of the pyruvate/PFOR/flavodoxin/FqrB/NADP+ electron transfer reaction (NADPH formation at 340 nm); format: biochemical; settings: 50 μM compound; anaerobic; 10 μM Fld, 0.09 mg/ml PFOR, 0.15 μM FqrB; FIG. 1
T1 construct: made in house; host or cells: E. coli BL21 (flavodoxin, pET28a); E. coli JVQ2 (PFOR, pBS(KS)); E. coli BL21(DE3) (FqrB, pET29b)
T1 sequence (O25776 1-164): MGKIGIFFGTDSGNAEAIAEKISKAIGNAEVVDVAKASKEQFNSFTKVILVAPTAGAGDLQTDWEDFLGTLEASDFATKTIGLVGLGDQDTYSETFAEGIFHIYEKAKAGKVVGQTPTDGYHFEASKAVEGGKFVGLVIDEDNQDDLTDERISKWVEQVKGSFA
Description: Measurement of the absorbance (A) (AU is the unit of absorbance) at 340 nm against time (t) in seconds (s).
Flavodoxin is an essential protein for Helicobacter pylori survival as it participates in a fundamental reaction for obtaining energy from the oxidative decarboxylation of pyruvate. In this reaction, flavodoxin transfers electrons between the PFOR enzyme and the FqrB enzyme, which releases them to NADP^+.
The sequential reaction of electron transfer between pyruvate, PFOR, flavodoxin, FqrB and NADP^+ (activity assay) was followed spectroscopically by the appearance of the signal at 340 nm with the formation of NADPH. The reaction mixture contained 100 mM potassium phosphate pH 7, 10 mM pyruvate, 0.18 mM CoA, 1 mM MgCl, 0.3 mM NADP^+, 0.09 mg/ml PFOR, 10 μM Fld and 0.15 μM FqrB. The mixture, except CoA, was placed in a cuvette specially designed for anaerobic conditions. Oxygen was removed by means of 5 minute cycles with alternate flows of vacuum and argon. The reaction was started by the addition of 0.18 mM coenzyme A (CoA) that was held in a compartment inside the same cuvette. The reaction completed 15 minutes after adding the CoA reagent.
The inhibition assays were carried out in the same conditions as the activity assays previously described, adding an additional 50 μM of the disclosed compound of the general formula shown in (II) to the reaction cuvette.

flavodoxin of H. pylori = target: T2, flavodoxin of H. pylori (Helicobacter pylori, UniProt O25776); experiment: Binding to flavodoxin by isothermal titration calorimetry (ITC); settings: 50 mM EPPS buffer, pH 9, 7% DMSO, protein around 20 μM, read-out: affinity for flavodoxin
T2 construct: made in house; host or cells: E. coli BL21
Method: The specific binding of the inhibitors of the present invention to flavodoxin of H. pylori was confirmed by isothermal titration calorimetry (ITC). This technique not only measures the affinity of each compound for the target protein, but also determines the contribution of the enthalpic and entropic components of binding.
The binding experiments were carried out in 50 mM EPPS buffer, pH 9 with 7% DMSO, with the inhibitor in the injection syringe at a concentration of 300-500 μM, and the protein around 20 μM in the measurement cell.

`COc1ccc(CSc2ccc([N+](=O)[O-])c3nonc23)cc1` [formula (II)] was tested, and the “inhibition of NADPH formation (product formation curve, absorbance at 340 nm)” value (H. pylori flavodoxin) was “almost total” and the Kd (flavodoxin of H. pylori) was 3 µM.
